Experimental data reported in ChEMBL document CHEMBL3102731, “Structure-activity relationship studies and biological characterization of human NAD(+)-dependent 15-hydroxyprostaglandin dehydrogenase inhibitors” (Bioorg Med Chem Lett, 2014).
pIC50: −log10 of the molar value. Values belong to the compound of their own block, whether it stands above or below them.

What was measured:
[1] = target: T1, 15-hydroxyprostaglandin dehydrogenase [NAD(+)] (Homo sapiens, UniProt P15428); assay: Inhibition of human HPGD using PGE2 as substrate after 15 mins by fluorescence assay
T1 sequence (P15428 whole entry): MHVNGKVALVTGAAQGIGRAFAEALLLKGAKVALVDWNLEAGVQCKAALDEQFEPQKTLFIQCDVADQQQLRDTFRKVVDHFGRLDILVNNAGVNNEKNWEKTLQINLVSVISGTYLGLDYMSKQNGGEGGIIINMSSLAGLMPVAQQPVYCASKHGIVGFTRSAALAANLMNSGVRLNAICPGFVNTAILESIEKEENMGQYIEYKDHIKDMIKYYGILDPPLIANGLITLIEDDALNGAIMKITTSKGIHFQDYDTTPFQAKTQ

[2] = target: T2, Peroxisomal multifunctional enzyme type 2 (Homo sapiens, UniProt P51659); assay: Inhibition of HSD17beta4 (unknown origin) using NAD+/estradiol as substrate at 324 pM to 57.2 uM after 15 mins by UV-fluorescence assay
T2 sequence (P51659 whole entry): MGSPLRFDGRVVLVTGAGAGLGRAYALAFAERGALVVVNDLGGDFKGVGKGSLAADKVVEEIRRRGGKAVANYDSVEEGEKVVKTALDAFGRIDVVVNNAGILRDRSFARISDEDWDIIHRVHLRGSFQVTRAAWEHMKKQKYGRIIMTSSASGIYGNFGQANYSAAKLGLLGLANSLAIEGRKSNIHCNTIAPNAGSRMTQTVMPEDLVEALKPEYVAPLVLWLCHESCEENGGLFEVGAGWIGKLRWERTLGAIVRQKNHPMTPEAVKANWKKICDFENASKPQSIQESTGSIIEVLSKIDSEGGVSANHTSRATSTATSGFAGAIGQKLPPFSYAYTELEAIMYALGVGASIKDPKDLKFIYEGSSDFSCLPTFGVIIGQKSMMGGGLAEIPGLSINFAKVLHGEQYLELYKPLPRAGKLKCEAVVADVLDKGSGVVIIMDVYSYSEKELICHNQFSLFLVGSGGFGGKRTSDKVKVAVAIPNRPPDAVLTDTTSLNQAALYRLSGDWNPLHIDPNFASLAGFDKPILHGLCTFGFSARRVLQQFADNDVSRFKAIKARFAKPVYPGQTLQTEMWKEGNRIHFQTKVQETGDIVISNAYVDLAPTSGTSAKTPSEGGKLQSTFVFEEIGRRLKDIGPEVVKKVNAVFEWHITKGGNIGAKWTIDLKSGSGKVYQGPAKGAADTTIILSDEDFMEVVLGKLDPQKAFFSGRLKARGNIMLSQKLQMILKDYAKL

[3] = target: L-lactate dehydrogenase B chain (Homo sapiens, UniProt P07195); assay: Inhibition of LDHB (unknown origin) using sodium pyruvate as substrate at 0.46 to 57.5 uM after 15 mins by fluorescence assay
Sequence of L-lactate dehydrogenase B chain (P07195 whole entry): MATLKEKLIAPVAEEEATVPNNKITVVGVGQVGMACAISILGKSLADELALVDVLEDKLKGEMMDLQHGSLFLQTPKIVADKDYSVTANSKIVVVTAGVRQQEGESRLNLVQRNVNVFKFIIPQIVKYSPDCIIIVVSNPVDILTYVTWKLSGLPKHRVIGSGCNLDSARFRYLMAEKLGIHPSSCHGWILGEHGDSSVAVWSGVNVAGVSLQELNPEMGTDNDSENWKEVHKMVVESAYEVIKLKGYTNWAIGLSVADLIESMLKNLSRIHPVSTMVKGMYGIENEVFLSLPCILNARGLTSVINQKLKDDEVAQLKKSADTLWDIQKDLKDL

[4] = Kinetic solubility of the compound in PBS buffer at pH 7.4; assay type: physicochemical
[5] = target: Glyceraldehyde-3-phosphate dehydrogenase (Oryctolagus cuniculus, UniProt P46406); assay: Inhibition of rabbit muscle GAPDH using glyceraldehyde-3-phosphate as substrate at 324 pM to 57.2 uM by fluorescence assay
Sequence of Glyceraldehyde-3-phosphate dehydrogenase (P46406 whole entry): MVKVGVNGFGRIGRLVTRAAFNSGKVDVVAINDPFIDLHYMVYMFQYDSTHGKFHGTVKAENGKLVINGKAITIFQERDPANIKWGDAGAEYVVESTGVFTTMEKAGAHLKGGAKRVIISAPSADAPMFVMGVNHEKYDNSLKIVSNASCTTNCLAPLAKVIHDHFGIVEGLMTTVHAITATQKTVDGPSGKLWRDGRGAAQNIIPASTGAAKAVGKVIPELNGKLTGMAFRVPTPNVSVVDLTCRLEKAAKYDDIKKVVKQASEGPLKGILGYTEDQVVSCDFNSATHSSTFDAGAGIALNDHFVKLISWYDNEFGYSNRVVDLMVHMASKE

[6] = system: Liver microsome; assay: Half life in rat liver microsomes in presence of NADPH; assay type: ADME
[7] = system: LNCaP; assay: Induction of PGE2 production in human LNCAP cells at 41.9 nM to 100 uM after 16 hrs by HTRF assay relative to control; assay type: functional
[8] = system: LNCaP; assay: Induction of PGE2 production in human LNCAP cells assessed as half-maximal activation concentration after 16 hrs by HTRF assay; assay type: functional, cell-based
[9] = system: A549; assay: Induction of PGE2 production in human A549 cells at 775 pM to 45.8 uM after 4 to 20 hrs by HTRF assay relative to control; assay type: functional
[10] = target: L-lactate dehydrogenase A chain (Homo sapiens, UniProt P00338); assay: Inhibition of LDHA (unknown origin) using sodium pyruvate as substrate at 0.46 to 57.5 uM after 15 mins by fluorescence assay
[11] = system: A549; assay: Induction of PGE2 production in human A549 cells assessed as concentration required for half-maximal activation after 4 to 20 hrs by HTRF assay; assay type: functional, cell-based
[12] = Passive permeability of the compound at pH 7.4 by PAMPA; assay type: ADME
[13] = target: T3, Aldehyde dehydrogenase 1A1 (Homo sapiens, UniProt P00352); assay: Inhibition of ALDH1A1 (unknown origin) using NAD+/propionaldehyde as substrate after 15 mins by UV-fluorescence assay
T3 sequence (P00352 whole entry): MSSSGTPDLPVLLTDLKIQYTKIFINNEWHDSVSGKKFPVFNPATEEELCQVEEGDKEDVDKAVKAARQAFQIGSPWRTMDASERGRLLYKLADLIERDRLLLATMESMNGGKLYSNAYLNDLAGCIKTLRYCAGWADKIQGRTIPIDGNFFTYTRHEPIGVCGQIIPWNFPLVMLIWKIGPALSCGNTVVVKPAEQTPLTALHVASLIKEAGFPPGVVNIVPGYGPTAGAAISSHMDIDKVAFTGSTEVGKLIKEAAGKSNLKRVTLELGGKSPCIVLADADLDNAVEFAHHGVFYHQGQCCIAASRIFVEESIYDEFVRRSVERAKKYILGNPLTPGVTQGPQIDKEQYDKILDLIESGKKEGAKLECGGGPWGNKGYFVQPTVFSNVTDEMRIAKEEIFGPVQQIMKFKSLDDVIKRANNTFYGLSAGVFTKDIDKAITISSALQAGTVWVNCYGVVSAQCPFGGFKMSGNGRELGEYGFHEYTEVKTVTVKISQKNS

SMILES: Cc1cccc(-n2cnc3cc(C(=O)N4CCCC(C)C4)ccc32)c1 (configuration not stated)
pIC50 [1]: 7.66

SMILES: Cc1cccc(-n2cnc3cc(C(=O)N4CC(C)CC(C)C4)ccc32)c1 (configuration not stated)
pIC50 [1]: 6.57

SMILES: Cc1cccc(-n2cnc3cc(C(=O)N4CCCC(C)(C)C4)ccc32)c1
IC50 [2]: Not Active | IC50 [3]: Not Active | Kinetic_solubility [4]: 5.6 µM | IC50 [5]: Not Active | t1/2 [6]: 1.8 min | pIC50 [1]: 7.17 | Activity [7]: 53% | AC50 [8]: 4.43 µM | Activity [9]: 127% | IC50 [10]: Not Active | AC50 [11]: 0.743 µM | permeability [12]: 2260 ×10⁻⁶ cm/s | pIC50 [13]: 5.72

SMILES: Cc1cccc(-n2cnc3cc(C(=O)N4CCCC(C(F)(F)F)C4)ccc32)c1 (configuration not stated)
pIC50 [1]: 7.17

SMILES: Cc1cccc(-n2cnc3cc(C(=O)N4CCC(C(F)(F)F)CC4)ccc32)c1
pIC50 [1]: 5.82

SMILES: Cc1cccc(-n2cnc3cc(C(=O)N4CCCC(c5ccccc5)C4)ccc32)c1 (configuration not stated)
pIC50 [1]: 6.37

SMILES: Cc1cccc(-n2cnc3cc(C(=O)NC4CCCC4)ccc32)c1
pIC50 [1]: 6.02

SMILES: CCCCNC(=O)c1ccc2c(c1)ncn2-c1cccc(C)c1
pIC50 [1]: 5.87

SMILES: Cc1cccc(-n2cnc3cc(C(=O)N4CCN(C)CC4)ccc32)c1
pIC50 [1]: 5.57

SMILES: Cc1cccc(-n2cnc3cc(C(=O)N4CCOCC4)ccc32)c1
pIC50 [1]: 5.52

SMILES: O=C(c1ccc2c(c1)ncn2-c1ccc(C(F)(F)F)cc1)N1CCCCC1
pIC50 [1]: 7.07

SMILES: CC(C)(C)n1cnc2cc(C(=O)N3CCCCC3)ccc21
pIC50 [1]: 7.47

SMILES: CCCCn1cnc2cc(C(=O)N3CCCCC3)ccc21
pIC50 [1]: 7.17

Continued, in another order:

pIC50 [1]: 7.32
SMILES: Cc1cccc(-n2cnc3cc(C(=O)N4CCCC(C(C)C)C4)ccc32)c1 (configuration not stated)

pIC50 [1]: 6.42
SMILES: Cc1cccc(-n2cnc3cc(C(=O)N4CCCC4)ccc32)c1

pIC50 [1]: 7.66
SMILES: O=C(c1ccc2c(c1)ncn2-c1ccccc1)N1CCCCC1

IC50 [2]: Not Active | IC50 [3]: Not Active | Kinetic_solubility [4]: > 50 µM | IC50 [5]: Not Active | t1/2 [6]: 6.4 min | pIC50 [1]: 7.92 | IC50 [10]: Not Active | permeability [12]: 895 ×10⁻⁶ cm/s | pIC50 [13]: 5.72
SMILES: O=C(c1ccc2c(c1)ncn2-c1cccc(Cl)c1)N1CCCCC1
Activity [7]: 85% | AC50 [8]: 0.222 µM | Activity [9]: 170%

pIC50 [1]: 7.72
SMILES: COc1cccc(-n2cnc3cc(C(=O)N4CCCCC4)ccc32)c1

IC50 [2]: Not Active | IC50 [3]: Not Active | Kinetic_solubility [4]: > 55 µM | IC50 [5]: Not Active | t1/2 [6]: 4.4 min | pIC50 [1]: 7.32 | IC50 [10]: Not Active | permeability [12]: 1350 ×10⁻⁶ cm/s | pIC50 [13]: 5.17
SMILES: O=C(c1ccc2c(c1)ncn2-c1cccc(C(F)(F)F)c1)N1CCCCC1
Activity [7]: 70% | AC50 [8]: 2.8 µM | Activity [9]: 173% | AC50 [11]: 2.64 µM

pIC50 [1]: 7.17
SMILES: CC(C)c1cccc(-n2cnc3cc(C(=O)N4CCCCC4)ccc32)c1

pIC50 [1]: 6.77
SMILES: CC(C)(C)c1cccc(-n2cnc3cc(C(=O)N4CCCCC4)ccc32)c1

pIC50 [1]: 7.72
SMILES: Cc1ccc(-n2cnc3cc(C(=O)N4CCCCC4)ccc32)cc1

pIC50 [1]: 7.66
SMILES: O=C(c1ccc2c(c1)ncn2-c1ccc(Cl)cc1)N1CCCCC1

IC50 [2]: Not Active | IC50 [3]: Not Active | Kinetic_solubility [4]: > 50 µM | IC50 [5]: Not Active | t1/2 [6]: 23 min | pIC50 [1]: 7.72 | IC50 [10]: Not Active | permeability [12]: 624 ×10⁻⁶ cm/s | pIC50 [13]: 5.87
SMILES: COc1ccc(-n2cnc3cc(C(=O)N4CCCCC4)ccc32)cc1
Activity [7]: 69% | AC50 [8]: 0.884 µM | Activity [9]: 174% | AC50 [11]: 0.662 µM

pIC50 [1]: 7.27
SMILES: CC(C)(C)c1ccc(-n2cnc3cc(C(=O)N4CCCCC4)ccc32)cc1
